Earlier results in PMC2805559 (Journal of medicinal chemistry, 2009).

Experiments:
Hsp90-IP6K2 interaction = details: ref [16]
tumor = details: ref [1]

Molecule	effect on binding of IP6K2 to Hsp90 (Hsp90-IP6K2 interaction)	anti-tumor activity (tumor)
C=CCNC1=C2C[C@@H](C)C[C@H](OC)[C@H](O)[C@@H](C)/C=C(\C)[C@H](OC(N)=O)[C@@H](OC)/C=C\C=C(/C)C(=O)NC(=CC1=O)C2=O [17-AAG, 17-allylamino, 17-demethoxygeldanamycin]	does not affect the binding	–
Sansalvamide A	–	micromolar potency
